Results from patent publication US20230022157A1 (Achillion Pharmaceuticals, Inc., priority 2018, published 2023).

target: T1, Human Factor D (Homo sapiens, UniProt P00746); test: Human Factor D Assay; type: biochemical; conditions: Human Factor D 80 nM, substrate Z-L-Lys-SBzl, assay of Example 3; read-out: IC50 (Stars)
T1 construct: purified from human serum; purchased Complement Technology, Inc; host or cells: human serum (natural protein, not recombinant)
Experimental: Human Factor D (purified from human serum, Complement Technology, Inc.) at 80 nM final concentration is incubated with test compound at various concentrations for 5 min at room temperature in 50 mM Tris, 1M NaCl, pH 7.5. A synthetic substrate Z-L-Lys-SBzl and DTNB (Ellman's reagent) are added to final concentrations of 100 μM each. […] IC50 values are calculated by nonlinear regression of complement Factor D reaction rates as a function of test compound concentration.

T1 sequence (P00746 26-253): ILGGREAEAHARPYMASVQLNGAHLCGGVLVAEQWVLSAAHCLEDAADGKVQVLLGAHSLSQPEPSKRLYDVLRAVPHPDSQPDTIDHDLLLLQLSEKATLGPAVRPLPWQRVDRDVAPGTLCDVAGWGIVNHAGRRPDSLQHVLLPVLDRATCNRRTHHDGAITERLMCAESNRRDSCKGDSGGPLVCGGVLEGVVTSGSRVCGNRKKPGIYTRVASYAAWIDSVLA

| Structure (SMILES) | IC50 |
| --- | --- |
| CC(=O)c1nn(CC(=O)N2[C@H](C(=O)NCCc3ccc(Cl)cc3Cl)C[C@@]3(C)C[C@@H]23)c2c(C)cc(-c3cnc(C)nc3)cc12 [Compound 5, (1R,3S,5R)-2-(2-(3-Acetyl-7-methyl-5-(2-methylpyrimidin-5-yl)-1H-indazol-1-yl)acetyl)-N-(2,4-dichlorophenethyl)-5-methyl-2-azabicyclo[3.1.0]hexane-3-carboxamide] | < 1000 nM |
| CC(=O)c1nn(CC(=O)N2[C@H](C(=O)Nc3cccc(Br)n3)C[C@@]3(C)C[C@@H]23)c2c3c(c(-c4cnc(C)nc4)cc12)CCCO3 [Compound 19, (1R,3S,5R)-2-(2-(3-acetyl-5-(2-methylpyrimidin-5-yl)-7,8-dihydropyran[3,2-g]indazol-1(6H)-yl)acetyl)-N-(6-bromopyridin-2-yl)-5-methyl-2-azabicyclo[3.1.0] hexane-3-carboxamide] | < 1000 nM |
| CC(=O)c1nn(CC(=O)N2C[C@H](F)C[C@H]2C(=O)Nc2cccc(Br)n2)c2ccc(-c3ccc(C)nc3)cc12 [Compound 33] | < 1000 nM |
| CC(=O)c1nn(CC(=O)N2[C@H](C(=O)NCCc3ccncc3)C[C@@]3(C)C[C@@H]23)c2c(C)cc(-c3cnc(C)nc3)cc12 [Compound 8, (1R,3S,5R)-2-(2-(3-Acetyl-7-methyl-5-(2-methylpyrimidin-5-yl)-1H-indazol-1-yl)acetyl)-5-methyl-N-(2-(pyridin-4-yl)ethyl)-2-azabicyclo[3.1.0]hexane-3-carboxamide] | 1000 to 10000 nM |

same assay, conditions: Human Factor D 80 nM, substrate Z-L-Lys-SBzl; Table 2; read-out: IC50 (Stars)

| Structure (SMILES) | IC50 |
| --- | --- |
| CC(=O)c1cn(CC(=O)N2[C@H](C(=O)Nc3nc(C(F)(F)F)ccc3C)C[C@@]3(C)C[C@@H]23)c2c(C)cc(-c3cnc(C)c(C)n3)cc12 [Compound 222, (1R,3S,5R)-2-(2-(3-acetyl-5-(5,6-dimethylpyrazin-2-yl)-7-methyl-1H-indol-1-yl)acetyl)-5-methyl-N-(3-methyl-6-(trifluoromethyl)pyridin-2-yl)-2-azabicyclo[3.1.0]hexane-3-carboxamide] | < 1000 nM |
| CC(=O)c1nn(CC(=O)N2[C@H](C(=O)Nc3cc(F)cc(Br)n3)C[C@@]3(C)C[C@@H]23)c2c(C)cc(-c3cnc(CO)nc3)cc12 [Compound 123, (1R,3S,5R)-2-(2-(3-acetyl-5-(2-(hydroxymethyl)pyrimidin-5-yl)-7-methyl-1H-indazol-1-yl)acetyl)-N-(6-bromo-4-fluoropyridin-2-yl)-5-methyl-2-azabicyclo[3.1.0]hexane-3-carboxamide] | < 1000 nM |
| CC(=O)c1nn(CC(=O)N2[C@H](C(=O)Nc3nc(Br)ccc3C)C[C@@]3(C)C[C@@H]23)c2ccc(-c3cncc(C4(C(=O)O)CC4)c3)cc12 [Compound 98, 1-(5-(3-acetyl-1-(2-((1R,3S,5R)-3-((6-bromo-3-methylpyridin-2-yl)carbamoyl)-5-methyl-2-azabicyclo[3.1.0]hexan-2-yl)-2-oxoethyl)-1H-indazol-5-yl)pyridin-3-yl)cyclopropane-1-carboxylic acid] | < 1000 nM |
| CC(=O)c1cn(CC(=O)N2[C@H](C(=O)Nc3nc(C(F)(F)F)ccc3Cl)C[C@@]3(C)C[C@@H]23)c2c(C)cc(-c3cnc(C)nc3)cc12 [Compound 233, (1R,3S,5R)-2-(2-(3-acetyl-7-methyl-5-(2-methylpyrimidin-5-yl)-1H-indol-1-yl)acetyl)-N-(3-chloro-6-(trifluoromethyl)pyridin-2-yl)-5-methyl-2-azabicyclo[3.1.0]hexane-3-carboxamide] | < 1000 nM |
| CC(=O)c1nn(CC(=O)N2[C@H](C(=O)Nc3nc(Br)ccc3C)C[C@@]3(C)C[C@@H]23)c2ccc(-c3cnc(C(C)O)nc3)cc12 (stereo partly drawn) [Compound 126, (1R,3S,5R)-2-(2-(3-acetyl-5-(2-(1-hydroxyethyl)pyrimidin-5-yl)-1H-indazol-1-yl)acetyl)-N-(6-bromo-3-methylpyridin-2-yl)-5-methyl-2-azabicyclo[3.1.0]hexane-3-carboxamide] | < 1000 nM |
| CC(=O)c1cn(CC(=O)N2[C@H](C(=O)Nc3nc(C(F)(F)F)ccc3C)C[C@@]3(CF)C[C@@H]23)c2c(C)cc(-c3cnc(C)nc3)cc12 [Compound 234, (1R,3S,5S)-2-(2-(3-acetyl-7-methyl-5-(2-methylpyrimidin-5-yl)-1H-indol-1-yl)acetyl)-5-(fluoromethyl)-N-(3-methyl-6-(trifluoromethyl)pyridin-2-yl)-2-azabicyclo[3.1.0]hexane-3-carboxamide] | < 1000 nM |
| Cc1ncc(-c2cc3c(C(N)=O)nn(CC(=O)N4[C@H](C(=O)Nc5nc(Br)c(F)cc5C)C[C@@]5(C)C[C@@H]45)c3c(CO)n2)cn1 [Compound 184, 1-(2-((1R,3S,5R)-3-((6-bromo-5-fluoro-3-methylpyridin-2-yl)carbamoyl)-5-methyl-2-azabicyclo[3.1.0]hexan-2-yl)-2-oxoethyl)-7-(hydroxymethyl)-5-(2-methylpyrimidin-5-yl)-1H-pyrazol[3,4-c]pyridine-3-carboxamide] | < 1000 nM |
| CC(=O)c1nn(CC(=O)N2[C@H](C(=O)Nc3nc(C(F)(F)F)ccc3C)C[C@@]3(C)C[C@@H]23)c2c(C)cc(-c3cnc4cc(CO)nn4c3)cc12 [Compound 227, (1R,3S,5R)-2-(2-(3-acetyl-5-(2-(hydroxymethyl)pyrazolo[1,5-a]pyrimidin-6-yl)-7-methyl-1H-indazol-1-yl)acetyl)-5-methyl-N-(3-methyl-6-(trifluoromethyl)pyridin-2-yl)-2-azabicyclo[3.1.0]hexane-3-carboxamide] | < 1000 nM |
| CC(=O)c1nn(CC(=O)N2[C@H](C(=O)Nc3nc(Br)ccc3C)C[C@@]3(C)C[C@@H]23)c2c(C)cc(-c3cnc(C(C)(C)O)nc3)cc12 [Compound 41, (1R,3S,5R)-2-(2-(3-acetyl-5-(2-(2-hydroxypropan-2-yl)pyrimidin-5-yl)-7-methyl-1H-indazol-1-yl)acetyl)-N-(6-bromo-3-methylpyridin-2-yl)-5-methyl-2-azabicyclo[3.1.0]hexane-3-carboxamide] | < 1000 nM |
| CC(=O)c1nn(CC(=O)N2[C@H](C(=O)Nc3nc(C(F)(F)F)ccc3C)C[C@@]3(C)C[C@@H]23)c2ccc(-c3cnc4cc(C)nn4c3)cc12 [Compound 212, (1R,3S,5R)-2-(2-(3-acetyl-5-(2-methylpyrazolo[1,5-a]pyrimidin-6-yl)-1H-indazol-1-yl)acetyl)-5-methyl-N-(3-methyl-6-(trifluoromethyl)pyridin-2-yl)-2-azabicyclo[3.1.0]hexane-3-carboxamide] | < 1000 nM |
| CC(=O)c1nn(CC(=O)N2[C@H](C(=O)NCCn3cccn3)C[C@@]3(C)C[C@@H]23)c2c(C)cc(-c3cnc(C)nc3)cc12 [Compound 102, (1R,3S,5R)-2-{2-[3-acetyl-7-methyl-5-(2-methylpyrimidin-5-yl)indazol-1-yl]acetyl}-5-methyl-N-[2-(pyrazol-1-yl)ethyl]-2-azabicyclo[3.1.0]hexane-3-carboxamide] | < 1000 nM |
| CC(=O)c1nn(CC(=O)N2[C@H](C(=O)Nc3nc(Br)ccc3C)C[C@@]3(C)C[C@@H]23)c2c(C)cc(-c3cnc(C#N)nc3)cc12 [Compound 57, (1R,3S,5R)-2-(2-(3-acetyl-5-(2-cyanopyrimidin-5-yl)-7-methyl-1H-indazol-1-yl)acetyl)-N-(6-bromo-3-methylpyridin-2-yl)-5-methyl-2-azabicyclo[3.1.0]hexane-3-carboxamide] | < 1000 nM |
| COC[C@@]12C[C@@H](C(=O)Nc3nc(C(F)(F)F)ccc3C)N(C(=O)Cn3cc(C(C)=O)c4cc(-c5cnc(C)nc5)cc(C)c43)[C@@H]1C2 [Compound 229, (1R,3S,5S)-2-(2-(3-acetyl-7-methyl-5-(2-methylpyrimidin-5-yl)-1H-indol-1-yl)acetyl)-5-(methoxymethyl)-N-(3-methyl-6-(trifluoromethyl)pyridin-2-yl)-2-azabicyclo[3.1.0]hexane-3-carboxamide] | < 1000 nM |
| CC(=O)c1nn(CC(=O)N2[C@H](C(=O)Nc3nc(Br)ccc3C)C[C@@]3(C)C[C@@H]23)c2c(C)cc(-c3cncc(S(C)(=O)=O)c3)cc12 [Compound 129, (1R,3S,5R)-2-(2-(3-Acetyl-7-methyl-5-(5-(methylsulfonyl)pyridin-3-yl)-1H-indazol-1-yl)acetyl)-N-(6-bromo-3-methylpyridin-2-yl)-5-methyl-2-azabicyclo[3.1.0]hexane-3-carboxamide] | < 1000 nM |
| COc1ncc(-c2cc(C)c3c(c2)c(C(C)=O)nn3CC(=O)N2[C@H](C(=O)Nc3nc(Br)ccc3C)C[C@@]3(C)C[C@@H]23)cn1 [Compound 52, (1R,3S,5R)-2-(2-(3-acetyl-5-(2-methoxypyrimidin-5-yl)-7-methyl-1H-indazol-1-yl)acetyl)-N-(6-bromo-3-methylpyridin-2-yl)-5-methyl-2-azabicyclo[3.1.0]hexane-3-carboxamide] | < 1000 nM |
| CC(=O)c1nn(CC(=O)N2[C@H](C(=O)Nc3nc(Br)ccc3C)C[C@@]3(C)C[C@@H]23)c2c(C)cc(-c3ccc(CO)nc3)cc12 [Compound 82, (1R,3S,5R)-2-(2-(3-acetyl-5-(6-(hydroxymethyl)pyridin-3-yl)-7-methyl-1H-indazol-1-yl)acetyl)-N-(6-bromo-3-methylpyridin-2-yl)-5-methyl-2-azabicyclo[3.1.0]hexane-3-carboxamide] | < 1000 nM |
| CC(=O)c1cn(CC(=O)N2[C@H](C(=O)Nc3nc(C(F)(F)F)ccc3C)C[C@@]3(C)C[C@@H]23)c2c(CO)nc(-c3cnc(C)nc3)cc12 [Compound 207, (1R,3S,5R)-2-(2-(3-acetyl-7-(hydroxymethyl)-5-(2-methylpyrimidin-5-yl)-1H-pyrrolo[2,3-c]pyridin-1-yl)acetyl)-5-methyl-N-(3-methyl-6-(trifluoromethyl)pyridin-2-yl)-2-azabicyclo[3.1.0]hexane-3-carboxamide] | < 1000 nM |
